This passage reports relative viability results from the supplement of paper PMC10307832.

One experiment deals with HCC-44. Briefly: relative viability (nuclei count vs DMSO), 5 days (fraction); higher = more cells survive. The note with it: first compound 2.53 µM. Summed up: (§1)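 Dosing by pin tool came one day after lung cancer cell lines were seeded in 1536-well plates, using either one drug or a fixed anchor-drug dose plus five library-drug doses (not always all listed) in √10 steps. After 5 days, nuclei were counted on 4× images. Relative viability is treated-well nuclei count divided by vehicle-well nuclei count, and values are medians of duplicate plates.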
`CCCCCCCCCCCC1=C(O)C(=O)C=C(O)C1=O` [Embelin] + Nc1ncn([C@H]2C[C@H](O)[C@@H](CO)O2)c(=O)n1 [Decitabine] (partner 2 µM) yielded a relative viability of 0.986.
Still for that read-out and setting: for `CCCCCCCCCCCC1=C(O)C(=O)C=C(O)C1=O` [Embelin] + COc1cccc2cc(-c3nc([C@H]4CC[C@H](C(=O)O)CC4)n4ncnc(N)c34)[nH]c12 [OSI-027] (partner 0.5 µM) the value was 0.344.
Still for that read-out and setting: for `CCCCCCCCCCCC1=C(O)C(=O)C=C(O)C1=O` [Embelin] + Nc1nc2[nH]cc(CCc3ccc(C(=O)N[C@@H](CCC(=O)O)C(=O)O)cc3)c2c(=O)[nH]1 [Pemetrexed] (partner 0.2 µM) the value was 0.599.

The experiment is the same for the next values; noted with them: first compound 8 µM.
`CCCCCCCCCCCC1=C(O)C(=O)C=C(O)C1=O` [Embelin] + Cc1cc(Nc2cc(N3CCN(C)CC3)nc(Sc3ccc(NC(=O)C4CC4)cc3)n2)n[nH]1 [Tozasertib] (partner 0.1 µM) registered a relative viability of 0.836.
Same read-out and setting: for `CCCCCCCCCCCC1=C(O)C(=O)C=C(O)C1=O` [Embelin] + CC(=O)Nc1cccc(-n2c(=O)n(C3CC3)c(=O)c3c(Nc4ccc(I)cc4F)n(C)c(=O)c(C)c32)c1 [Trametinib] (partner 0.02 µM) the value was 1.08.
`CCCCCCCCCCCC1=C(O)C(=O)C=C(O)C1=O` [Embelin] + Nc1ncn([C@H]2C[C@H](O)[C@@H](CO)O2)c(=O)n1 [Decitabine] (partner 2 µM): the relative viability came out at 0.944.
The same measure, in the same setting: under `CCCCCCCCCCCC1=C(O)C(=O)C=C(O)C1=O` [Embelin] + COc1cccc2cc(-c3nc([C@H]4CC[C@H](C(=O)O)CC4)n4ncnc(N)c34)[nH]c12 [OSI-027] (partner 0.5 µM) stands 0.323.
On to `CCCCCCCCCCCC1=C(O)C(=O)C=C(O)C1=O` [Embelin] + Nc1nc2[nH]cc(CCc3ccc(C(=O)N[C@@H](CCC(=O)O)C(=O)O)cc3)c2c(=O)[nH]1 [Pemetrexed] (partner 0.2 µM), for which the relative viability was found to be 0.699.

Another experiment relates to HOP-62. The experiment is described as above. Particulars: first compound 0.08 µM. An outline of the steps:
as §1
In the case of `CCCCCCCCCCCC1=C(O)C(=O)C=C(O)C1=O` [Embelin] + Cc1cc(Nc2cc(N3CCN(C)CC3)nc(Sc3ccc(NC(=O)C4CC4)cc3)n2)n[nH]1 [Tozasertib] (partner 0.1 µM), the relative viability was 0.313.
On the same count and under the same terms, under `CCCCCCCCCCCC1=C(O)C(=O)C=C(O)C1=O` [Embelin] + CC(=O)Nc1cccc(-n2c(=O)n(C3CC3)c(=O)c3c(Nc4ccc(I)cc4F)n(C)c(=O)c(C)c32)c1 [Trametinib] (partner 0.02 µM) stands 0.402; under `CCCCCCCCCCCC1=C(O)C(=O)C=C(O)C1=O` [Embelin] + Nc1ncn([C@H]2C[C@H](O)[C@@H](CO)O2)c(=O)n1 [Decitabine] (partner 2 µM), 0.193.
The molecule `CCCCCCCCCCCC1=C(O)C(=O)C=C(O)C1=O` [Embelin] + COc1cccc2cc(-c3nc([C@H]4CC[C@H](C(=O)O)CC4)n4ncnc(N)c34)[nH]c12 [OSI-027] (partner 0.5 µM) came in with a relative viability of 0.88.
On the same count and under the same terms, under `CCCCCCCCCCCC1=C(O)C(=O)C=C(O)C1=O` [Embelin] + Nc1nc2[nH]cc(CCc3ccc(C(=O)N[C@@H](CCC(=O)O)C(=O)O)cc3)c2c(=O)[nH]1 [Pemetrexed] (partner 0.2 µM) stands 0.384.

Still in this experiment, the particulars now being: first compound 0.8 µM.
Consider `CCCCCCCCCCCC1=C(O)C(=O)C=C(O)C1=O` [Embelin] + Cc1cc(Nc2cc(N3CCN(C)CC3)nc(Sc3ccc(NC(=O)C4CC4)cc3)n2)n[nH]1 [Tozasertib] (partner 0.1 µM), for which the relative viability turned out to be 0.456.
The molecule `CCCCCCCCCCCC1=C(O)C(=O)C=C(O)C1=O` [Embelin] + CC(=O)Nc1cccc(-n2c(=O)n(C3CC3)c(=O)c3c(Nc4ccc(I)cc4F)n(C)c(=O)c(C)c32)c1 [Trametinib] (partner 0.02 µM) registered a relative viability of 0.472.
Same read-out and setting: under `CCCCCCCCCCCC1=C(O)C(=O)C=C(O)C1=O` [Embelin] + Nc1ncn([C@H]2C[C@H](O)[C@@H](CO)O2)c(=O)n1 [Decitabine] (partner 2 µM) stands 0.22; under `CCCCCCCCCCCC1=C(O)C(=O)C=C(O)C1=O` [Embelin] + COc1cccc2cc(-c3nc([C@H]4CC[C@H](C(=O)O)CC4)n4ncnc(N)c34)[nH]c12 [OSI-027] (partner 0.5 µM), 0.922.
The same measure, in the same setting: for `CCCCCCCCCCCC1=C(O)C(=O)C=C(O)C1=O` [Embelin] + Nc1nc2[nH]cc(CCc3ccc(C(=O)N[C@@H](CCC(=O)O)C(=O)O)cc3)c2c(=O)[nH]1 [Pemetrexed] (partner 0.2 µM) the value was 0.365.

The same experiment, now with this note: first compound 2.53 µM.
In the case of `CCCCCCCCCCCC1=C(O)C(=O)C=C(O)C1=O` [Embelin] + Cc1cc(Nc2cc(N3CCN(C)CC3)nc(Sc3ccc(NC(=O)C4CC4)cc3)n2)n[nH]1 [Tozasertib] (partner 0.1 µM), the relative viability was 0.377.
The same measure, in the same setting: for `CCCCCCCCCCCC1=C(O)C(=O)C=C(O)C1=O` [Embelin] + CC(=O)Nc1cccc(-n2c(=O)n(C3CC3)c(=O)c3c(Nc4ccc(I)cc4F)n(C)c(=O)c(C)c32)c1 [Trametinib] (partner 0.02 µM) the value was 0.476.
Same read-out and setting: for `CCCCCCCCCCCC1=C(O)C(=O)C=C(O)C1=O` [Embelin] + Nc1ncn([C@H]2C[C@H](O)[C@@H](CO)O2)c(=O)n1 [Decitabine] (partner 2 µM) the value was 0.205.
The same measure, in the same setting: under `CCCCCCCCCCCC1=C(O)C(=O)C=C(O)C1=O` [Embelin] + COc1cccc2cc(-c3nc([C@H]4CC[C@H](C(=O)O)CC4)n4ncnc(N)c34)[nH]c12 [OSI-027] (partner 0.5 µM) stands 0.931; under `CCCCCCCCCCCC1=C(O)C(=O)C=C(O)C1=O` [Embelin] + Nc1nc2[nH]cc(CCc3ccc(C(=O)N[C@@H](CCC(=O)O)C(=O)O)cc3)c2c(=O)[nH]1 [Pemetrexed] (partner 0.2 µM), 0.308.

Still in this experiment, the particulars now being: first compound 8 µM.
For the molecule `CCCCCCCCCCCC1=C(O)C(=O)C=C(O)C1=O` [Embelin] + Cc1cc(Nc2cc(N3CCN(C)CC3)nc(Sc3ccc(NC(=O)C4CC4)cc3)n2)n[nH]1 [Tozasertib] (partner 0.1 µM), the relative viability was found to be 0.387.
The molecule `CCCCCCCCCCCC1=C(O)C(=O)C=C(O)C1=O` [Embelin] + CC(=O)Nc1cccc(-n2c(=O)n(C3CC3)c(=O)c3c(Nc4ccc(I)cc4F)n(C)c(=O)c(C)c32)c1 [Trametinib] (partner 0.02 µM) gave a relative viability of 0.379.
The same measure, in the same setting: for `CCCCCCCCCCCC1=C(O)C(=O)C=C(O)C1=O` [Embelin] + Nc1ncn([C@H]2C[C@H](O)[C@@H](CO)O2)c(=O)n1 [Decitabine] (partner 2 µM) the value was 0.19.
Same read-out and setting: for `CCCCCCCCCCCC1=C(O)C(=O)C=C(O)C1=O` [Embelin] + COc1cccc2cc(-c3nc([C@H]4CC[C@H](C(=O)O)CC4)n4ncnc(N)c34)[nH]c12 [OSI-027] (partner 0.5 µM) the value was 0.812.
`CCCCCCCCCCCC1=C(O)C(=O)C=C(O)C1=O` [Embelin] + Nc1nc2[nH]cc(CCc3ccc(C(=O)N[C@@H](CCC(=O)O)C(=O)O)cc3)c2c(=O)[nH]1 [Pemetrexed] (partner 0.2 µM) had a relative viability of 0.303.

In another experiment the test system is NCI-H2023. Described as above. The note with it: first compound 0.08 µM. Summed up: as §1
`CCCCCCCCCCCC1=C(O)C(=O)C=C(O)C1=O` [Embelin] + Cc1cc(Nc2cc(N3CCN(C)CC3)nc(Sc3ccc(NC(=O)C4CC4)cc3)n2)n[nH]1 [Tozasertib] (partner 0.1 µM) displayed a relative viability of 0.412.
